According to patent US7820623B2 (priority 2006, dated 2010):
Like-named read-outs stand apart in the source and are kept apart here. Bridge positions count the residues as written; N and C are the ends. Square brackets hold non-standard residues; d marks the D form. Peptide text beside a SMILES is read from it. 1Nal = N[C@@H](Cc1cccc2ccccc12)C(=O)O

Tests used:
[1] = test system: thapsigargin-induced IFN-g production in human whole blood; assay type: cell-based; conditions: read-out: Analogue Activity (IC50) WB/IFNg
[2] = test system: thapsigargin-induced IL-2 production in human whole blood; conditions: for IC50: read-out: Analogue Activity (IC50) WB/IL-2
human Kv1.3 = human Kv1.3 (Homo sapiens, UniProt P22001); assay type: cell-based; set-up: expressed in transfected cells
human Kv1.3 (CHO) = biological target: T1, human Kv1.3 (CHO) (Homo sapiens, UniProt P22001); assay: cell-based; assay type: cell-based
T1 construct: expressed in transfected cells
T1 sequence (P22001 whole entry): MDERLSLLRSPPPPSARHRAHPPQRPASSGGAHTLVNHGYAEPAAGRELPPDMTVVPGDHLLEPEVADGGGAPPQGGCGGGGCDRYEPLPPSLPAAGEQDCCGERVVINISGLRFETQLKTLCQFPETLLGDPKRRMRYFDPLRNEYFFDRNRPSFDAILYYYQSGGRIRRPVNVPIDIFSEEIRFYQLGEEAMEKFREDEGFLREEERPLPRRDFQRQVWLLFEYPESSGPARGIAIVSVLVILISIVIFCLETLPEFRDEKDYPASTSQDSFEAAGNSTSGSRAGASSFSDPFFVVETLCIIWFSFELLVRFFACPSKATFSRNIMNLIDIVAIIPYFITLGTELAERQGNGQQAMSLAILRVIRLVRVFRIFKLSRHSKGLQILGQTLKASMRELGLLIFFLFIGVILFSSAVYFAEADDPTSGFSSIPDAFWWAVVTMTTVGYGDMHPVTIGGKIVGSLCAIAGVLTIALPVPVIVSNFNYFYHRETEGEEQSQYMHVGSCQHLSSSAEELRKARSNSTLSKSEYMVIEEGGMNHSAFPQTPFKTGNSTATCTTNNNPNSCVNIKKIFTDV

Chain of human Kv1.3 (P22001 whole entry): as above

Row | Compound | IC50 [1] [nM] | IC50 [2] [nM] | Kv1.3 Selectivity (= Kv1.1/Kv.3 IC50) (human Kv1.3) | also measured
1 | CC[C@H](C)[C@@H]1NC(=O)[C@H](CCCCN)NC(=O)[C@@H](NC(=O)[C@H](CCCCN)NC(=O)[C@@H](NC(=O)[C@H](CC(N)=O)NC(=O)[C@@H](NC(=O)[C@@H](NC(=O)[C@@H](NC(=O)CN)C(C)C)[C@@H](C)CC)[C@@H](C)CC)C(C)C)CSSC[C@@H]2NC(=O)[C@H](CCCCN)NC(=O)CNC(=O)[C@H](Cc3ccccc3)NC(=O)[C@H](CCCNC(=N)N)NC(=O)[C@H](CCSC)NC(=O)CNC(=O)[C@H](C)NC(=O)[C@H](CCCCN)NC(=O)[C@H](CCCCN)NC(=O)[C@@H]3CSSC[C@@H](C(=O)N[C@H](C(=O)N4CCC[C@H]4C(=O)N[C@@H](CCCCN)C(=O)O)[C@@H](C)O)NC(=O)[C@H](Cc4c[nH]cn4)NC(=O)[C@H](CSSC[C@H](NC(=O)[C@H](CCC(N)=O)NC(=O)[C@H](CCCNC(=N)N)NC(=O)[C@H](CO)NC1=O)C(=O)N[C@@H](CC(C)C)C(=O)N[C@@H](CCC(=O)O)C(=O)N1CCC[C@H]1C(=O)N3)NC(=O)[C@H](CCCCN)NC(=O)CNC(=O)[C@H](C)NC(=O)[C@H](CCSC)NC2=O [N30A] (H-GVIINVKCKISRQCLEPCKKAGMRFGKCMAGKCHCTPK-OH; disulfide 8-28, 14-33, 18-35) | 0.637 | 0.971 | 14 | –
2 | CC[C@H](C)[C@@H]1NC(=O)[C@H](CCCCN)NC(=O)[C@@H](NC(=O)[C@H](CCCCN)NC(=O)[C@@H](NC(=O)[C@H](CC(N)=O)NC(=O)[C@@H](NC(=O)[C@@H](NC(=O)[C@@H](NC(=O)CN)C(C)C)[C@@H](C)CC)[C@@H](C)CC)C(C)C)CSSC[C@@H]2NC(=O)[C@H](CCCCN)NC(=O)CNC(=O)[C@H](Cc3ccccc3)NC(=O)[C@H](CCCNC(=N)N)NC(=O)[C@H](CCSC)NC(=O)CNC(=O)[C@H](C)NC(=O)[C@H](CCCCN)NC(=O)[C@H](CCCCN)NC(=O)[C@@H]3CSSC[C@@H](C(=O)N[C@H](C(=O)N4CCC[C@H]4C(=O)N[C@@H](CCCCN)C(=O)O)[C@@H](C)O)NC(=O)[C@H](Cc4c[nH]cn4)NC(=O)[C@H](CSSC[C@H](NC(=O)[C@H](CCC(N)=O)NC(=O)[C@H](CCCNC(=N)N)NC(=O)[C@H](CO)NC1=O)C(=O)N[C@@H](CC(C)C)C(=O)N[C@@H](CCC(=O)O)C(=O)N1CCC[C@H]1C(=O)N3)NC(=O)[C@H](CCCCN)NC(=O)CNC(=O)[C@H](Cc1cccc3ccccc13)NC(=O)[C@H](CCSC)NC2=O [N30Nal] (H-GVIINVKCKISRQCLEPCKKAGMRFGKCM[1Nal]GKCHCTPK-OH; disulfide 8-28, 14-33, 18-35) | 37 | – | – | IC50 (human Kv1.3 (CHO)): > 3.33 nM
3 | CC[C@H](C)[C@@H]1NC(=O)[C@H](CCCCN)NC(=O)[C@@H](NC(=O)[C@H](CCCCN)NC(=O)[C@@H](NC(=O)[C@H](CC(N)=O)NC(=O)[C@@H](NC(=O)[C@@H](NC(=O)[C@@H](NC(=O)CN)C(C)C)[C@@H](C)CC)[C@@H](C)CC)C(C)C)CSSC[C@@H]2NC(=O)[C@H](CCCCN)NC(=O)CNC(=O)[C@H](Cc3ccccc3)NC(=O)[C@H](CCCNC(=N)N)NC(=O)[C@H](CCSC)NC(=O)CNC(=O)[C@H](C)NC(=O)[C@H](CCCCN)NC(=O)[C@H](CCCCN)NC(=O)[C@@H]3CSSC[C@@H](C(=O)N[C@H](C(=O)N4CCC[C@H]4C(=O)N[C@@H](CCCCN)C(=O)O)[C@@H](C)O)NC(=O)[C@H](Cc4c[nH]cn4)NC(=O)[C@H](CSSC[C@H](NC(=O)[C@H](CCC(N)=O)NC(=O)[C@H](CCCNC(=N)N)NC(=O)[C@H](CO)NC1=O)C(=O)N[C@@H](CC(C)C)C(=O)N[C@@H](CCC(=O)O)C(=O)N1CCC[C@H]1C(=O)N3)NC(=O)[C@H](CCCCN)NC(=O)CNC(=O)[C@H](CC(N)=O)NC(=O)[C@H](C)NC2=O [OSK1[Ala-29]] (H-GVIINVKCKISRQCLEPCKKAGMRFGKCANGKCHCTPK-OH; disulfide 8-28, 14-33, 18-35) | – | – | – | inhibition of Kv1.3 current and selectivity over Kv1.1 by IonWorks (human Kv1.3 (CHO)): potent inhibition of the Kv1.3 current and improved selectivity over Kv1.1; potency relative to cyclosporin A in blocking the cytokine response [2]: several orders of magnitude more potent; IC50 (human Kv1.3; read-out: IC50 on CHO/Kv1.3): 0.033 nM
4 | CC[C@H](C)[C@@H]1NC(=O)[C@H](CCCCN)NC(=O)[C@@H](NC(=O)[C@H](CCCCN)NC(=O)[C@@H](NC(=O)[C@H](CC(N)=O)NC(=O)[C@@H](NC(=O)[C@@H](NC(=O)[C@@H](NC(=O)CN)C(C)C)[C@@H](C)CC)[C@@H](C)CC)C(C)C)CSSC[C@@H]2NC(=O)[C@H](CCCCN)NC(=O)CNC(=O)[C@H](Cc3ccccc3)NC(=O)[C@H](CCCNC(=N)N)NC(=O)[C@H](CCSC)NC(=O)CNC(=O)[C@H](C)NC(=O)[C@H](CCCCN)NC(=O)[C@H](CCCCN)NC(=O)[C@@H]3CSSC[C@@H](C(=O)N[C@H](C(=O)N[C@@H](CCC(=O)O)C(=O)N[C@@H](CCCCN)C(=O)O)[C@@H](C)O)NC(=O)[C@H](Cc4c[nH]cn4)NC(=O)[C@H](CSSC[C@H](NC(=O)[C@H](CCC(N)=O)NC(=O)[C@H](CCCNC(=N)N)NC(=O)[C@H](CO)NC1=O)C(=O)N[C@@H](CC(C)C)C(=O)N[C@@H](CCC(=O)O)C(=O)N1CCC[C@H]1C(=O)N3)NC(=O)[C@H](CCCCN)NC(=O)CNC(=O)[C@H](CC(N)=O)NC(=O)[C@H](CCSC)NC2=O [P37E] (H-GVIINVKCKISRQCLEPCKKAGMRFGKCMNGKCHCTEK-OH; disulfide 8-28, 14-33, 18-35) | 1.6 | 0.239 | 65 | –
5 | CC[C@H](C)[C@@H]1NC(=O)[C@H](CCCCN)NC(=O)[C@@H](NC(=O)[C@H](CCCCN)NC(=O)[C@@H](NC(=O)[C@H](CC(N)=O)NC(=O)[C@@H](NC(=O)[C@@H](NC(=O)[C@@H](NC(=O)CN)C(C)C)[C@@H](C)CC)[C@@H](C)CC)C(C)C)CSSC[C@@H]2NC(=O)[C@H](CCCCN)NC(=O)CNC(=O)[C@H](Cc3ccccc3)NC(=O)[C@H](CCCNC(=N)N)NC(=O)[C@H](CCSC)NC(=O)CNC(=O)[C@H](C)NC(=O)[C@H](CCCCN)NC(=O)[C@H](CCCCN)NC(=O)[C@@H]3CSSC[C@@H](C(=O)N[C@H](C(=O)N4CCC[C@H]4C(=O)N[C@@H](CCCCN)C(=O)O)[C@@H](C)O)NC(=O)[C@H](Cc4c[nH]cn4)NC(=O)[C@H](CSSC[C@H](NC(=O)[C@H](CCC(N)=O)NC(=O)[C@H](C)NC(=O)[C@H](CO)NC1=O)C(=O)N[C@@H](CC(C)C)C(=O)N[C@@H](CCC(=O)O)C(=O)N1CCC[C@H]1C(=O)N3)NC(=O)[C@H](CCCCN)NC(=O)CNC(=O)[C@H](CC(N)=O)NC(=O)[C@H](CCSC)NC2=O [R12A] (H-GVIINVKCKISAQCLEPCKKAGMRFGKCMNGKCHCTPK-OH; disulfide 8-28, 14-33, 18-35) | 0.155 | 0.123 | 17 | –
6 | CC[C@H](C)[C@@H]1NC(=O)[C@H](CCCCN)NC(=O)[C@@H](NC(=O)[C@H](CCCCN)NC(=O)[C@@H](NC(=O)[C@H](CC(N)=O)NC(=O)[C@@H](NC(=O)[C@@H](NC(=O)[C@@H](NC(=O)CN)C(C)C)[C@@H](C)CC)[C@@H](C)CC)C(C)C)CSSC[C@@H]2NC(=O)[C@H](CCCCN)NC(=O)CNC(=O)[C@H](Cc3ccccc3)NC(=O)[C@H](CCCNC(=N)N)NC(=O)[C@H](CCSC)NC(=O)CNC(=O)[C@H](C)NC(=O)[C@H](CCCCN)NC(=O)[C@H](CCCCN)NC(=O)[C@@H]3CSSC[C@@H](C(=O)N[C@H](C(=O)N4CCC[C@H]4C(=O)N[C@@H](CCCCN)C(=O)O)[C@@H](C)O)NC(=O)[C@H](Cc4c[nH]cn4)NC(=O)[C@H](CSSC[C@H](NC(=O)[C@H](CCC(N)=O)NC(=O)[C@H](CCCNC(=N)N)NC(=O)[C@H](CCCNC(=N)N)NC1=O)C(=O)N[C@@H](CC(C)C)C(=O)N[C@@H](CCC(=O)O)C(=O)N1CCC[C@H]1C(=O)N3)NC(=O)[C@H](CCCCN)NC(=O)CNC(=O)[C@H](CC(N)=O)NC(=O)[C@H](CCSC)NC2=O [S11R] (H-GVIINVKCKIRRQCLEPCKKAGMRFGKCMNGKCHCTPK-OH; disulfide 8-28, 14-33, 18-35) | 4.07 | 2.12 | 228 | –
7 | CC[C@H](C)[C@@H]1NC(=O)[C@H](CCCCN)NC(=O)[C@@H](NC(=O)[C@H](CCCCN)NC(=O)[C@@H](NC(=O)[C@H](CC(N)=O)NC(=O)[C@@H](NC(=O)[C@@H](NC(=O)[C@@H](NC(=O)CN)C(C)C)[C@@H](C)CC)[C@@H](C)CC)C(C)C)CSSC[C@@H]2NC(=O)[C@H](CCCCN)NC(=O)CNC(=O)[C@H](Cc3ccccc3)NC(=O)[C@H](CCCNC(=N)N)NC(=O)[C@H](CCSC)NC(=O)CNC(=O)[C@H](C)NC(=O)[C@H](CCCCN)NC(=O)[C@H](CCCCN)NC(=O)[C@@H]3CSSC[C@@H](C(=O)N[C@@H](CCC(=O)O)C(=O)N4CCC[C@H]4C(=O)N[C@@H](CCCCN)C(=O)O)NC(=O)[C@H](Cc4c[nH]cn4)NC(=O)[C@H](CSSC[C@H](NC(=O)[C@H](CCC(N)=O)NC(=O)[C@H](CCCNC(=N)N)NC(=O)[C@H](CO)NC1=O)C(=O)N[C@@H](CC(C)C)C(=O)N[C@@H](CCC(=O)O)C(=O)N1CCC[C@H]1C(=O)N3)NC(=O)[C@H](CCCCN)NC(=O)CNC(=O)[C@H](CC(N)=O)NC(=O)[C@H](CCSC)NC2=O [T36E] (H-GVIINVKCKISRQCLEPCKKAGMRFGKCMNGKCHCEPK-OH; disulfide 8-28, 14-33, 18-35) | 2.42 | 1.74 | 44 | –
8 | E. coli-derived ShK[2-35]-L-Fc | – | – | – | IC50 (human Kv1.3 (CHO); read-out: Kv1.3 IC50 by IWQ): 4.9 nM
9 | E. coli-derived Shk[1-35]-L-Fc | – | – | – | IC50 (human Kv1.3 (CHO); read-out: Kv1.3 IC50 by IWQ): 2.4 nM
